According to patent US10420733B2, “Transdermal delivery system containing methylphenidate or its salts and methods thereof” (TAHO Pharmaceuticals Ltd., priority 2016, dated 2019):

Experiment: Maximum amount of methylphenidate dissolved in various adhesives
Type: physicochemical
Procedure: Various adhesives were tested to determine the maximum amount of methylphenidate could be dissolved.

In the case of `COC(=O)C(c1ccccc1)C1CCCCN1` (stereo not shown) [methylphenidate, a-phenyl-2-piperidineacetic acid methyl ester], the “solubility in Duro Tak 87-6911” value is reported as “highly soluble”.
